Results published in US10342790B2, “Use of ceranib-2 in the treatment of lung cancer” (ANADOLU UNIVERSITESI REKTORLUGU, priority 2017, dated 2019).

Experiments:
[1] = test system: MCF-7 human breast cancer cells; assay: IC50 in MCF-7 cells (cytotoxicity); assay type: cell-based; settings: read-out: IC50 concentration in MCF-7 human breast cancer cells
[2] = test system: NIH/3T3 cells; assay: IC50 in NIH/3T3 cells (cytotoxicity); assay type: cell-based; settings: read-out: IC50 concentration in NIH/3T3 cells
[3] = test system: MCF-7 cell line; assay: Confocal microscopy of MCF-7 cells; assay type: cell-based, human; settings: MCF-7 cells treated for 24 hours, acridine orange and phalloidine
Excerpt: In FIG. 1, the confocal microscopy images are provided belonging to the study made on the MCF-7 cell line. In the control cells, a tight and normal cell and cell nucleus structure are seen (FIG. 1A).
FIG. 1: Confocal electron transmission microscope image of MCF-7 cells painted with acridine orange and phalloidine.

[4] = test system: A549 human lung adeno-carcinoma cells; assay: MTT cyto-toxicity test, A549 cells; assay type: cell-based; settings: 24 hours incubation, read-out: IC50 concentration in A549 lung cancer cells
Procedure: A549 human lung adeno-carcinoma cells have been implanted to the cell culture plates with 96 wells such that there are 2×10^3 cells per well. The cells implanted to the plate have been incubated at 37° C. and in a medium of 5% carbon dioxide. A549 cells have been incubated for 24 hours in the concentration range of 5-65 μM with synthesized ceranib-2. At the end of the duration, 20 μL MTT dye (5 mg/mL) has been added to each well and it has been incubated for 2 hours more at 37° C. After the incubation, the liquid part in each well on the plate is discharged and 200 μL DMSO has been added for dissolving the formazan salts formed by viable cells and it has been waited for 10 minutes at room temperature. The color change occurring has been read at wavelength of 570 nm on the ELx808-IU (Bio-Tek, USA) plate reader. The experiment has been repeated 3 times. Separate viability values have been calculated according to the control group for each dose.

[5] = test system: synergistic tumor model; settings: 20-50 mg/kg; cited from earlier work
[6] = value mentioned in the sources; read-out: IC50 concentration in cell-based experiments (in the sources); cited from earlier work
[7] = test system: MCF-7 cells; assay: Electron micrographs of MCF-7 cells; assay type: cell-based, human; settings: MCF-7 cells treated for 24 hours
Excerpt: In FIG. 2, electron micrographs of the MCF-7 cells are seen.
FIG. 2: Electron transmission micrographs of MCF-7 cells.

[8] = test system: A549 lung cancer cell line; assay: Microscopy of structural changes in A549 cells; assay type: cell-based, human; settings: A549 cells treated for 24 hours
Excerpt: In FIG. 3, the confocal microscope images of the study made on A549 type cells which is a lung cancer cell line are given.
FIG. 3: Electron transmission microscope images showing the structural changes in A549 cells.

[9] = test system: 5RP7 cells; assay: IC50 in 5RP7 cells (cytotoxicity); assay type: cell-based; settings: read-out: IC50 concentration in 5RP7 cells

COc1ccc(C=CC(=O)c2c(-c3ccccc3)c3ccccc3[nH]c2=O)cc1 [ceranib-2, 3-[3-(4-methoxyphenyl)-1-oxo-2-prpen-1-yl]-4-phenyl-2(1H)-quinolinone]
IC50 [1]: 13 µM | IC50 [2]: 5 µM | Cell morphology, confocal microscopy (FIG. 1) [3]: condensation is observed in the chromatin, holes are observed in the cell structure, shrunken cell nucleus is observed and fragmentizing cells are observed | IC50 [4]: 14 µM | Toxicity in vivo [5]: without leading to toxicity | Tumor growth [5]: inhibits tumor growth | IC50 [6]: ~28 µM | Cell ultrastructure, electron micrographs (FIG. 2) [7]: the nucleus membrane is lost and the mitochondria is deformed | Structural changes in cells, microscopy (FIG. 3) [8]: the cell nucleus is fragmentized, the cell shape is transformed from oval to round and deformations begin in the cell membrane, lipid drops are formed inside the cell, DNA fragmentizing occurs and holes occur inside the cell | IC50 [9]: 3 µM
